Measured values as given in BindingDB's records for doi:10.1074/jbc.M114.556381 (Central South University, 2014).

Molecular target: Prokineticin receptor 2 (Homo sapiens, UniProt Q8NFJ6)
Test: Calcium Mobilization Assay
Details: pH 7.5; 37 °C
Experimental: Briefly, Chinese hamster ovary cells stably expressing the photoprotein aequorin were transiently transfected with WT or respective mutant PKR2-expressing plasmids. Two days after transfection, the cells were charged in Opti-MEM (Invitrogen) containing 8 μM coelenterazine cp (Invitrogen) at 37 °C for 2 h. Cells were detached by brief trypsinization and maintained in assay buffer (Hanks' balanced salt solution plus 10 mM HEPES, pH 7.5, and 0.1% bovine serum albumin) at approximately 5 × 10^5 cells/ml. Luminescence measurements were made using a Sirius Single Tube Luminometer (Berthold Detection Systems GmbH, Pforzheim, Germany). PK2 was serially diluted in assay buffer and mixed with cells. The luminescence was monitored for 35 s (peak 1), then 100 μl of 1% Triton X-100 was injected to lyse the cells, and the luminescence was monitored continuously for another 20 s (peak 2). The area under the curve of the peak 1 was divided by the total area under the curve of peaks 1 and 2, and the maximal responses from WT receptors were normalized to 100.

Sequence of Prokineticin receptor 2 (Q8NFJ6 whole entry): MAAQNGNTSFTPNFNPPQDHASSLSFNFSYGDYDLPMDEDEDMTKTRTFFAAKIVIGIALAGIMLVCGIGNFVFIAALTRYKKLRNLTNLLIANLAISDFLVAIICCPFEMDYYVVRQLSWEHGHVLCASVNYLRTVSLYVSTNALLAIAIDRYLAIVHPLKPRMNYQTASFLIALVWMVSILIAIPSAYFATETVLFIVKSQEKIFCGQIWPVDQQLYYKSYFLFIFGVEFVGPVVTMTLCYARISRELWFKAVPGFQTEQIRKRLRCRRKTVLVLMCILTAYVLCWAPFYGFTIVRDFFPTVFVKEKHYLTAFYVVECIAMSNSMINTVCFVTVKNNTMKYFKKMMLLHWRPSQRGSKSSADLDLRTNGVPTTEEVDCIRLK

Compound: CC(C)CN(Cc1cc(Cl)c2c(c1)OCCCO2)C(=O)C1CCN(Cc2ccccc2)C1 (racemic) [US8722896, (+/-)-1-Benzyl-N-(9-chloro-3,4-dihydro-2H-1,5-benzodioxepin-7-ylmethyl)-N-isobutylpyrrolidine-3-carboxamide]
- IC50: 102 nM
